Assay [1] deals with T1, GPR8 (Homo sapiens, UniProt P48146).
T1 construct: expressed in transfected cells
In words: GTPγ S binding promoting activity on GPR8-expressed CHO cell membrane fraction. It counts as biochemical. How it is done:
The [^35S]-guanosine 5′-(γ-thio)triphosphate binding promoting activity on a GPR8-expressed CHO cell membrane fraction was assayed by the following procedures. First, preparation of the membrane fraction is described. To 1×10^8 of CHO/GPR8 cells was added 10 ml of a homogenate buffer (10 mM NaHCO3, 5 mM EDTA, 0.5 mM PMSF, 1 μg/ml pepstatin, 4 μg/ml E64, 20 μg/ml leupeptin). The mixture was homogenized by using Polytron (12,000 rpm, 1 min.). The cell homogenate was subjected to centrifugation (1,000 g, 15 mins.) to obtain the supernatant. Next, the supernatant was subjected to ultracentrifugation (Beckman type 30 rotor, 30,000 rpm, 1 hour). The resulting precipitate was used as GPR8-expressed CHO cell membrane fraction.
The GTPγ S binding activity was assayed as follows. The GPR8-expressed CHO cell membrane fraction was diluted with a membrane dilution buffer (50 mM Tris-hydrochloride buffer (pH 7.4), 5 mM MgCl2, 150 mM NaCl, 1 μM GDP) to prepare a cell membrane fraction solution for assay having a protein level of […]. To 200 μl of the cell membrane fraction solution for assay were added 2 μl of 51.5 nM [^35S]-guanosine 5′-(γ-thio)triphosphate (NEN Co.) and a sample fluid. […] After washing twice with 1.5 ml of a wash buffer (50 mM Tris-hydrochloride buffer (pH 7.4), 5 mM MgCl2, 1 mM EDTA, 0.1% BSA), radioactivity of the filter was measured with a liquid scintillation counter. […]
Background: Binding of GTPγS marks nucleotide exchange on a G protein.

In assay [2] the target is T1, GPR8. In words: Receptor binding test using [125I-Tyr10]-hGPR8L (1–23) and GPR8-expressed CHO cell membrane fraction. To be noted: inhibition of [125I-Tyr10]-hGPR8L (1–23) binding; membrane fraction 5 μg/ml. The protocol:
Receptor binding test was carried out using [^125I]-labeled hGPR8L (1–23) prepared as described in EXAMPLE 42 and the cell membrane fraction prepared from GPR8-expressed CHO cells prepared in a similar manner to the procedures described in EXAMPLE 6.
The cell membrane fraction prepared from human GPR8-expressed CHO cells was diluted with an assay buffer (25 mM Tris-HCl, 5 mM EDTA (ethylenediaminetetraacetic acid), 0.05% CHAPS (3-[(3-cholamidopropyl)dimethlammonio]-1-propanesulfonate), 0.1% BSA (bovine serum albumin), 0.25 mM PMSF (phenylmethylsulfonyl fluoride), 1 μg/ml pepstatin, 20 μg/ml leupeptin, pH 7.4) in various concentrations. Subsequently, 200 μl each of the dilution was dispensed in a polypropylene tst tube (Falcon 2053). […] After filtration, the residual radioactivity remained on the filter paper was measured with a γ-counter, and the specific binding (SB) was estimated by subtracting the non-specific binding from the total binding. […]
The receptor binding activity of the human and porcine homologue derivatives of the GPR8 ligand peptide, which synthesis was described in the specification, was determined s described in EXAMPLE 43, using the GPR8-expressed cell membrane fraction and [^125I-Tyr^10]-hGPR8L (1–23). […]

Ends that are not written are not given here.

EC50 and IC50 data for 3 compounds are collected here from patent US7193033B2, “Peptide having appetite stimulating activity” (Takeda Pharmaceutical Company Limited, priority 2001, dated 2007).

In general, EC50 refers to the concentration at which the effect is half-maximal. The term IC50 denotes the concentration at which inhibition is half-maximal. A high value points to weaker potency in that assay.

T1 sequence (P48146 whole entry): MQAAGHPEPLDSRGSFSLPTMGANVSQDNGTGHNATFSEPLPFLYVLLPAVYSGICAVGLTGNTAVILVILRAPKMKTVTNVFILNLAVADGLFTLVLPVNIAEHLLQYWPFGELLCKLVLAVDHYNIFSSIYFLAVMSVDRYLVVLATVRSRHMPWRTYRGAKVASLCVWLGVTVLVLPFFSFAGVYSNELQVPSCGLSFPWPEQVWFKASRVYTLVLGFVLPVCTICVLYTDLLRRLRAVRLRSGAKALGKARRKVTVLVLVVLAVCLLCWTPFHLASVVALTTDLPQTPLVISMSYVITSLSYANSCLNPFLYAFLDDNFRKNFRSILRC

Compound “H-WYKHVASPRYHTVGRAAG [hGPR8L(1–18), Trp-Tyr-Lys-His-Val-Ala-Ser-Pro-Arg-Tyr-His-Thr-Val-Gly-Arg-Ala-Ala-Gly]” displayed an EC50 in assay [1] greater than 10000 nM.
In turn, `CSCC[C@H](NC(=O)[C@H](CC(C)C)NC(=O)[C@H](CC(C)C)NC(=O)CNC(=O)[C@H](C)NC(=O)[C@H](C)NC(=O)[C@H](CCCNC(=N)N)NC(=O)CNC(=O)[C@@H](NC(=O)[C@@H](NC(=O)[C@H](Cc1c[nH]cn1)NC(=O)[C@H](Cc1ccc(O)cc1)NC(=O)[C@H](CCCNC(=N)N)NC(=O)[C@@H]1CCCN1C(=O)[C@H](CO)NC(=O)[C@H](C)NC(=O)[C@@H](NC(=O)[C@H](Cc1c[nH]cn1)NC(=O)[C@H](CCCCN)NC(=O)[C@H](Cc1ccc(O)cc1)NC(=O)[C@H](Cc1c[nH]c2ccccc12)NC(=O)OCC1c2ccccc2-c2ccccc21)C(C)C)[C@@H](C)O)C(C)C)C(=O)NCC(=O)N[C@@H](CC(C)C)C(=O)O` [Fmoc-hGPR8L(1–23)] showed an IC50 in assay [2] of 0.2 nM.
Still for that read-out and setting: to H-WYKHVASPRYHTVGRAAGLL [hGPR8L(1–20)] belongs 0.2 nM.
